“Also recorded” adds a separate entry of the source. Where two headings read alike, the source gives them in different places. Where only a bound is given, the exact number is not on record here.

Data set [1] concerns rats having neuropathic pain. The data set is described as follows: Motor incoordination observed after oral administration in the allodynia study. Particulars: rat, in vivo, 300 mg/kg. The procedure: However, with the higher dose (300 mg/kg) the effect was maintained even for 24 hours.
With the higher dose (30 mg/kg) motor incoordination was observed between 1 and 7 hours, whereas with the 10 mg/kg dose, incoordination was observed between 3 and 4 hours after the administration.

For data set [2], the system named is rats subjected to L5/L6 spinal nerve ligation. Description: Tactile allodynia (von Frey filaments, 50% withdrawal threshold, % MPE) in rats with L5/L6 spinal nerve ligation. The format is in vivo, rat. The following applies: for ED50: Rattus norvegicus, read-out: ED50 of the anti-allodynic effect, antiepileptic alone; for Effect on 50% withdrawal threshold (anti-allodynic effect): oxcarbazepine 30-300 mg/kg, pregabalin 0.3-30 mg/kg, vitamin B12 0.06-6 mg/kg. The procedure:
6-week-old female Wistar rats having a body weight of 140-160 g, were used. Each rat was studied only once and sacrified. The Guidelines for pain investigations in animals (Zimmermann, 1983) were used in all the experiments.
The rats were anesthesized via intraperitoneal route with a mixture of ketamine/xylazine (45 and 12 mg/kg, respectively). A partial incision was carried out in the left transverse lumbar area for isolating and ligating the L5 and L6 left spinal nerves with a silk suture 6-0. The ligation was carried out next to the formation of the sciatic nerve and distal to the dorsal root ganglion. Subsequently, the wound was sutured. Conduct tests were performed 12 days after surgery.
For the determination of tactile allodynia, the rats were placed in individual plastic boxes having a stainless steel metallic mesh bottom during 30 minutes, for their adaptation. The tactile threshold test is based in the induction of the animal's left paw withdrawal to gentle mechanical stimuli. The paw was stimulated by applying mechanical force using different Von Frey filaments ranging from 2.36 g to 6.65 g. The thinner the filament's thickness is, the fewer force is applied, and viceversa. For stimulating the animal's paw, the intermediate filament (3.41 g) was firstly used. The left paw elevation in ten seconds was taken as a positive response and a stimulus with a lower caliber filament was applied. If no withdrawal of the animal's paw occurred, it was considered as a negative response, then a stronger stimulus was applied with the next filament until the animal responded.
Once a change in the response took place, either positive or negative, the stimulation was carried out 4 more times, taking a series of 6 patterns of positive and negative responses (Chaplan et al., 1994). The response patterns were tabulated and the 50% response threshold was calculated by using the Dixon formula (1980).
Graphs of the 50% withdrawal threshold (g) as a function of time (h) were constructed from the obtained data
50% withdrawal threshold (g)=(10^[Xf+Kδ])/10,000
From the data of the 50% withdrawal threshold, bar graphs and dose response curves were constructed for the percentage of anti-allodynic effect represented as the percentage of the maximum possible effect (% MPE), by using the following formula:
% MPE=[(AUC drug−AUC vehicle/(AUC sham−AUC vehicle)]×100
In both curves the value of the ED50 was determined.

For data set [3] the following is noted: cited from earlier work.
Another data set deals with plasmatic proteins. Particulars: cited from earlier work.
Another data set relates to patients. The following applies: doses of from 300 to 600 mg; cited from earlier work.
Data set [4] concerns tactile allodynia induced by the linkage of the spinal nerves L5 and L6. The following applies: cited from earlier work.

As to `NC(=O)N1c2ccccc2CC(=O)c2ccccc21` [oxcarbazepine], the “Motor incoordination, time window after administration” value in data set [1] lay in the range of 2 to 8 h. Moreover, the ED50 in data set [2] (oral, single agent, from dose-response curves) was found to be 78.8 mg/kg. For the same compound, in data set [2] (oral), the “Time of maximum anti-allodynic effect” value was “about 3 hours” and the “Effect on 50% withdrawal threshold (anti-allodynic effect)” value (“Effect on 50% withdrawal threshold” below) is “dose-dependent way; also recorded: significantly increased”. For the same compound, in data set [2] (oral, higher dose 300 mg/kg), the “Time for which the anti-allodynic effect was maintained” value was not below 24 h.

Take `CC(C)C[C@H](CN)CC(=O)O` [pregabalin]: in data set [3] (after an oral dose), the Bioavailability was 90%; the “Time of maximum plasma peaks” value is “an hour and a half”. Besides, in data set [3] (in vivo), the “Excreted by the urinary route” value is “about 98%”, the Half-life of elimination is 6.3 h and the Metabolism entry was “minimal metabolism”. Further, in data set [3] (oral), the Oral absorption entry is “quickly absorbed”. Also, the “Binding to plasmatic proteins” value in the data set with plasmatic proteins is given as “does not link to plasmatic proteins”. Moreover, the ED50 in data set [2] (po) is 3.3 mg/kg. For the same compound, in data set [2] (oral), the “Time of maximum anti-allodynic effect” value is listed as “about 2 hours” and the “Effect on 50% withdrawal threshold” value was “dose-dependent way; also recorded: significantly increased”. Besides, in data set [2] (oral, 24 hours after administration), the “Analgesic effect at 24 hours” value is listed as “no longer observed”. In the data set with patients, the “Adverse reaction: dizziness” value was 27-46% and the “Adverse reaction: drowsiness” value is given as 15-25%.

Take cyanocobalamin [vitamin B12]: in data set [2] (oral), the “Time of maximum anti-allodynic effect” value is recorded as “about 3 hours” and the “Effect on 50% withdrawal threshold” value is “significantly increased”. For the same compound, the “Analgesic effect at 8 hours” value in data set [2] (oral, 8 hours after administration) is reported as “no longer observed”. The “Effect on tactile allodynia” value in data set [4] is reported as “capable of reducing tactile allodynia”.

The record behind these values is patent publication US20140323428A1, “ANTINEURITIC PHARMACEUTICAL COMBINATION AND COMPOSITIONS” (priority 2011, published 2014).
